Results taken from patent US20200306222A1, “Dosing Regimen of Siponimod” (NOVARTIS AG, priority 2017, published 2020).

Experiments:
[1] = i.v. (bolus) cardiovascular safety studies; format: in vivo, guinea pig, rat and rabbit; conditions: similar to the effects by oral route
Excerpt: (§1) The safety of the i.v. route in humans was supported by a local tolerance study in rabbit and cardiovascular safety studies in guinea pig, rat and rabbit using i.v. (bolus) route.

[2] = clinical study of siponimod pharmacokinetics in CYP2C9 poor metabolizers; format: in vivo, human
Excerpt: In addition to the previously described benefits, the dosing regimen of the present disclosure has also the advantage to highly reduce the additional risks run by the CYP2C9 poor metabolizer.

[3] = i.v. versus oral absolute bioavailability study in healthy subjects (CBAF312A2126), PK and PD; format: in vivo, human
Method: A comparison of bradyarrhythmic effects (HR, AVB, SP) of a 1 mg oral dose from previous studies and a 1 mg/day i.v. dose infused over 24 h in healthy subjects supported the hypothesis that such effects are related to the slope of the concentration-time curve.
In said study with siponimod administered intravenously, PK and PD were determined. […] This finding was consistent with previous oral administrations of 0.25 mg (starting dose of the oral initial period dosing regimen).
as §1

[4] = randomized placebo-controlled study of siponimod in intracerebral hemorrhage (ICH) patients; format: in vivo, human; conditions: compared to placebo
Excerpt: The clinical study investigates the initial efficacy and safety of siponimod administered on top of standard-of-care compared to placebo in patients with intracerebral hemorrhage (ICH). This is a randomized, doubled-blinded, placebo-controlled, parallel group study of siponimod on top of standard-of-care for ICH, consisting of 3 epochs: Screening/Baseline, Treatment, and Follow-Up (see FIG. 1).
Patients fulfilling all eligibility criteria are randomly allocated to one of two treatment groups in a ratio of 1:1. […] These patients continue to be followed for the remainder of the assessment schedule (Table 3). i.v. Dose Titration
The siponimod i.v. dosing regimen is as follows: • Day 1: 0.25 mg over 6 hours (×2), then 0.5 mg over 6 hours, then 0.75 mg over 6 hours for a total Day 1 dose of 1.75 mg • Day 2: 1.25 mg over 6 hours, then 2 mg over 6 hours, then 2.5 mg over 6 hours (×2) for a total Day 2 dose of 8.25 mg • Days 3 through Day 7: 2.5 mg over 6 hours (×4) for a total daily dose of 10 mg. • If patient can swallow then the administration from Day 8 to Day 14 is oral.
This is a randomized, doubled-blinded, placebo-controlled, parallel group study of siponimod on top of standard-of-care for ICH, consisting of 3 epochs: Screening/Baseline, Treatment, and Follow-Up (see FIG. 1).
Patients are assigned to one of the following 2 treatment arms in a ratio of 1:1. • Study treatments are defined as: • Siponimod • Day 1: i.v. 0.25 mg over 6 hours (×2), then 0.5 mg over 6 hours, then 0.75 mg over 6 hours for a total Day 1 dose of 1.75 mg • Day 2: i.v. 1.25 mg over 6 hours, then 2 mg over 6 hours, then 2.5 mg over 6 hours (×2) for a total Day 2 dose of 8.25 mg • Days 3 through 7: i.v. 2.5 mg over 6 hours (×4) for a total daily dose of 10 mg • Days 8 through 14; 10 mg p.o. QD

CYP2C9, CYP3A4 = conditions: humans; cited from earlier work
[5] = siponimod single dose study (SAD study) in healthy volunteers; format: in vivo; conditions: healthy subjects
[6] = test system: Absolute Lymphocyte Count (ALC); experiment: multiple ascending dosing study in healthy volunteers, decline of Absolute Lymphocyte Count; format: in vivo, human
Method: (§2) In another study in healthy subjects siponimod was administered in multiple doses, i.e. 0.3, 1, 2.5, 10 and 20 mg, over 28 days (multiple ascending dosing study, MAD study).

[7] = phase II dose finding study in relapsing-remitting multiple sclerosis (CBAF312A2201); format: in vivo, human; conditions: RRMS patients
Method: In a phase II dose finding study of siponimod in patients with relapsing-remitting multiple sclerosis (CBAF312A2201) safety, tolerability and efficacy on magnetic resonance imaging (MRI) brain lesion parameters were evaluated. The dose response curve for the MRI-based efficacy of siponimod given orally once daily compared with placebo was determined.
The dose-response curve as defined by the primary endpoint, favored the upper part of this range, i.e. a dose in the range of siponimod 2 mg, since efficacy seemed to decrease with lower doses. Siponimod achieved positive results in a clinical trial for the treatment of RRMS patients (Selmaj et al., Lancet Neurol, 2013, 12, 756-767) and is currently being investigated in an ongoing phase III study (EXPAND) in patients with SPMS. The dose of 2 mg of siponimod was the chosen dose for this follow up phase III study.

[8] = multiple-dose titration clinical study in healthy subjects, daily chronotropic effects; format: in vivo, human
Method: S1P receptor modulators, as mentioned above, are known to cause dose dependent transient decrease in heart rate within 2-3 hours of drug intake (Legangneux et al. 2012, Hoch et al. 2014). In order to evaluate on how to best mitigate the bradyarrhythmic risk of siponimod, a multiple-dose titration clinical study in healthy subjects was run.
The primary objective of this study was to measure the daily chronotropic effects of two siponimod dose-titration regimens (from 0.25 mg to 10 mg; Dose Titration (DT) 1# and 2#, respectively) compared to daily chronotropic effects of oral siponimod 10 mg (fixed dose, once daily) and placebo over 12 days. The heart rate (HR) changes have been compared between subjects exposed to 10 mg siponimod once daily (QD) with or without 2 different up-titration schemes. The titration scheme of this study was: • DT 1#: Day 1: 0.25 mg; Day 2: 0.25 mg; Day 3: 0.25 mg; Day 4: 0.5 mg; Day 5: 1.0 mg; Day 6: 2.0 mg; Day 7: 4.0 mg; Day 8: 8.0 mg and from Day 9 to Day 12: 10.0 mg daily. • DT 2#: Day 1: 0.25 mg; Day 2: 0.25 mg; Day 3: 0.5 mg; Day 4: 0.75 mg; Day 5: 1.25 mg; Day 6: 2.0 mg; Day 7: 3.0 mg; Day 8: 5.0 mg; from Day 9 to Day 12: 10.0 mg daily.
This effect was maintained until end of treatment on Day 12. […] It was then concluded that both titration regimens effectively attenuated the initial bradycardia observed on Day 1 of treatment with siponimod 10 mg daily fixed-dose.

[9] = multiple ascending dosing study (MAD study) in healthy subjects, adverse events; format: in vivo, human; conditions: maximum investigated multiple dose of 20 mg, over 28 days
Method: as §2

[10] = general pharmacokinetics/pharmacodynamics of siponimod (lymphocyte counts, half-life, brain penetration); format: in vivo; conditions: in vivo
Method: (§3) Siponimod is a second generation S1P receptor modulator that reduces peripheral lymphocyte counts approximately 4-6 hours (h) after the first dose. […] Siponimod's mode of action is believed to include S1P1-mediated prevention of effector lymphocyte recirculation from lymphatic tissue to sites of inflammation, such as the central nervous system (CNS). In addition, there may be direct beneficial effects in the CNS mediated by S1P1 and/or S1P5. […] Thus, siponimod may display additional beneficial activities in the CNS.

[11] = test system: peripheral lymphocyte counts; experiment: as above; format: in vivo
Method: as §3

In the case of `CCc1cc(/C(C)=N/OCc2ccc(C3CCCCC3)c(C(F)(F)F)c2)ccc1CN1CC(C(=O)O)C1` [siponimod, 1-{4-[(1E)-N-{[4-cyclohexyl-3-(trifluoromethyl)benzyl]oxy}ethanimidoyl]-2-ethylbenzyl}-3-azetidine carboxylic acid], the cardiovascular effects [1] is reported as “Cmax-related transient cardiovascular effects”, the “Tmax in poor versus extensive metabolizers” value ([2]; poor and extensive metabolizers) is reported as “comparable” and the “Cmax in poor versus extensive metabolizers” value ([2]; poor metabolizers) is reported as “only slightly greater”. The “AUC fold versus extensive metabolizers (CYP2C9*1*1)” value ([2]; poor metabolizers (CYP2C9*2*3 and CYP2C9*3*3 genotypes)) was “approximately 2 fold”, the “pharmacokinetics (PK) linearity” value ([3]; human, in vivo) was “dose linear and time-independent pharmacokinetics” and the Tmax ([3]; human, in vivo, 0.25 mg, oral, after dosing, read-out: median oral Tmax) was 8 h. For the same compound, the “magnitude of PD (ALC) effects %Emax, i.v. versus oral” value ([3]; i.v. 0.25 mg over 3 hour and 1 mg over 24 hours) was “comparable to the effects after oral doses at the same dose levels”, the “median i.v. Tmax” value ([3]; i.v. infusion 0.25 mg over 3 hours and 1 mg over 24 hours) was “at the end of the 3 hour and 24 hour infusions” and the cardiac safety profile ([3]; i.v. infusion 0.25 mg over 3 hours and 1 mg over 24 hours (4×0.25 mg/6 hours)) was “excellent cardiac safety profile”. The “geometric mean oral Cmax relative to mean i.v. Cmax (lower)” value ([3]; oral versus i.v.) was -48%, the “global functioning, modified Rankin Scale (mRS) score” value ([4]; Day 90 after ICH, 7 days i.v. with titration followed by 7 days p.o.) was “improves global functioning” and the “development of perihematomal edema (PHE)” value ([4]; between 24 hours and 14 days after initiation of treatment) was “decreases the development of perihematomal edema (PHE)”. For the same compound, the functional mobility ([4]; two week treatment) was “improves functional mobility of the affected body parts”, the metabolizing enzymes (CYP2C9, CYP3A4) was “mainly by CYP2C9, followed by CYP3A4” and the safety and tolerability ([5]; 25 mg single dose) was “favorable safety and tolerability profile”. For the same compound, the “single maximum tolerated dose (single MTD)” value ([5]; single dose) was 25 mg, the “% Emax0-12 h from Day 1 pre-dose” value ([6]; 0.3 mg dose group) was 41.9% and the “% Emax0-12 h from time-matched Day −1” value ([6]; 0.3 mg dose group) was 47.8%. The “% Emax0-12 h from Day 1 pre-dose” value ([6]; 1 mg dose group) was 71.3%, the “% Emax0-12 h from time-matched Day −1” value ([6]; 1 mg dose group) was 73.8% and the “ALC decrease, chronic response” value ([6]; 2.5 mg) was about 70%. The “% Emax0-12 h from Day 1 pre-dose” value ([6]; 2.5 mg dose group) was 66.9%, the “% Emax0-12 h from time-matched Day −1” value ([6]; 2.5 mg dose group) was 67.5% and the “ALC decrease, chronic response (plateau)” value ([6]; 10 mg) was “about 80%”. For the same compound, the “% Emax0-12 h from Day 1 pre-dose” value ([6]; 10 mg dose group) was 83.7%, the “% Emax0-12 h from time-matched Day −1” value ([6]; 10 mg dose group) was 86.1% and the “% Emax0-12 h from Day 1 pre-dose” value ([6]; 20 mg dose group) was 84.8%. The “% Emax0-12 h from time-matched Day −1” value ([6]; 20 mg dose group) was 86.5%, the “acute ALC response” value ([6]; Day 1 of treatment, between 0.3 mg and 10 mg dose) was “dose-dependent decline of ALC” and the MRI-based efficacy ([7]; 1.25 mg to 2 mg dose range) was “close to maximal efficacy”. The safety profile ([7]; 1.25 mg to 2 mg dose range) was “good safety profile”, the MRI-based efficacy ([7]; 10 mg orally once daily) was “little additional efficacy compared to 2 mg” and the safety profile ([7]; 10 mg orally once daily) was “worse safety profile”. For the same compound, the “reduction in heart rate vs. placebo” value ([8]; Day 1, either titration regimen) was “no statistically significant reduction in heart rate vs. placebo”, the “reduction in HR” value ([8]; Days 3 to 7, DT 1# and DT 2#) was “minor reductions in HR” and the “heart rates versus placebo” value ([8]; by Day 9 until Day 12, both titration regimens) was “comparable to placebo”. For the same compound, the “clinically significant bradycardia or AV conduction effects” value ([8]; dose titration regimens DT 1# and DT 2# (0.25 mg to 10 mg), oral, 12 days) was “Neither DT 1# nor DT 2# resulted in clinically significant bradycardia or AV conduction effects”, the “heart rates versus placebo” value ([8]; non-titration regimen, 10 mg fixed dose once daily, throughout the study) was “considerable separation from placebo” and the bradyarrhythmia ([8]; starting dose of 0.25 mg of the 2 DT regimens) was “not associated with bradyarrhythmia”. The “only relevant adverse event” value [9] was “symptomatic bradycardia”, the half-life [10] was about 30 h and the “time to reduction of peripheral lymphocyte counts” value ([11]; after the first dose) was 4 to 6 h (h). The “recovery of the baseline lymphocyte counts” value ([11]; after treatment withdrawal) was “within a week” and the “blood brain barrier crossing” value ([11]; in vivo) was “readily crosses the blood brain barrier”.
